Test results as given in PubChem BioAssay (NCI).
Values joined by “and” are separate entries in the source; they are usually repeats but may differ in a detail not shown here. Identical values can stand only once.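 Five concentrations, 48 hours, 96-well plates. At the GI50, growth is halved. TGI is the concentration that stops growth completely.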 Where a SMILES comes first, the peptide text is derived from it. [ ]: non-standard residue; d: D form. pGlu = O=C1CC[CH](C(=O)O)N1

How the values were obtained:
Assay in all cases: DTP human tumour cell line panel, 48 h
[1] = test system: NCI-H460 lung
[2] = test system: SF-268 CNS
[3] = test system: PC-3 prostate
[4] = test system: NCI/ADR-RES ovarian
[5] = test system: SF-295 CNS
[6] = test system: SK-OV-3 ovarian
[7] = test system: NCI-H522 lung
[8] = test system: SK-MEL-2 melanoma
[9] = test system: MALME-3M melanoma
[10] = test system: RXF 393 renal

For `C[C@@]1(C(=O)O)CCC[C@]2(C)C1CC[C@@]13CC(=O)[C@@](CO)(CC[C@]12O)C3` (stereo partly specified), the GI50 [1] was > 100 µM, the TGI [1] was > 100 µM and the GI50 [2] was > 100 µM. For the same molecule, the TGI [2] was > 100 µM, the GI50 [3] was > 100 µM and the TGI [3] was > 100 µM. The GI50 [4] was > 100 µM, the TGI [4] was > 100 µM and the GI50 [5] was > 100 µM. For the same molecule, the TGI [5] was > 100 µM, the GI50 [6] was 21.3 µM and the TGI [6] was > 100 µM. The GI50 [7] was > 100 µM, the TGI [7] was > 100 µM and the GI50 [8] was > 100 µM. For the same molecule, the TGI [8] was > 100 µM, the GI50 [9] was 24.1 µM and the TGI [9] was > 100 µM. The GI50 [10] was > 100 µM and the TGI [10] was > 100 µM.
With `COc1cccc(N2CCN(CC(=O)N3CCN(c4nnc(-c5ccc(Cl)cc5)c(-c5ccc(Cl)cc5)n4)CC3)CC2)c1` the GI50 [1] was 24.5 µM, the TGI [1] was > 100 µM and the GI50 [2] was > 100 µM. For the same molecule, the TGI [2] was > 100 µM, the GI50 [3] was 16.6 µM and the TGI [3] was > 100 µM. For the same molecule, the GI50 [4] was 19.9 µM, the TGI [4] was > 100 µM and the GI50 [5] was 28.9 µM. The TGI [5] was > 100 µM, the GI50 [6] was 22 µM and the TGI [6] was 77.6 µM. For the same molecule, the GI50 [7] was 19.8 µM, the TGI [7] was > 100 µM and the GI50 [8] was 35.1 µM. For the same molecule, the TGI [8] was > 100 µM, the GI50 [9] was 20.6 µM and the TGI [9] was > 100 µM. The GI50 [10] was 28.7 µM and the TGI [10] was > 100 µM.
With `CSC(=Nc1nnc(-c2ccc([N+](=O)[O-])cc2)s1)SC` the TGI [1] was > 100 µM, the TGI [2] was 68 µM and the TGI [3] was > 100 µM. The TGI [4] was > 100 µM, the TGI [5] was 50 µM and the TGI [6] was 62.4 µM. The TGI [7] was 99.2 µM, the TGI [8] was > 91.6 µM and the TGI [9] was > 100 µM. It also gave a TGI [10] of 45.4 µM.
`CN(/N=C/c1cccc2cccnc12)c1ccc([N+](=O)[O-])cc1[N+](=O)[O-]` was tested, and the TGI [1] was > 100 µM, the TGI [2] was 58.6 µM and the TGI [3] was > 100 µM. The TGI [4] was > 100 µM, the TGI [5] was 33 µM and the TGI [6] was 52.8 µM. The TGI [7] was 57.2 µM, the TGI [8] was 47.4 µM and the TGI [9] was 70.2 µM. For the same molecule, the TGI [10] was 40.9 µM.
`CCNC(=O)C1CCCN1C(=O)C(CCCN=C(N)N)NC(=O)C(CC(C)C)NC(=O)C(CC(C)C)NC(=O)C(Cc1ccc(O)cc1)NC(=O)C(CO)NC(=O)C(Cc1c[nH]c2ccccc12)NC(=O)C(Cc1cnc[nH]1)NC(=O)C1CCC(=O)N1` (stereo unspecified) ([pGlu]HWSYLLRP-NHEt; configuration not given here) was tested, and the GI50 [1] was > 100 µM, the TGI [1] was > 100 µM and the GI50 [2] was > 100 µM. For the same molecule, the TGI [2] was > 100 µM, the GI50 [3] was > 100 µM and the TGI [3] was > 100 µM. For the same molecule, the GI50 [4] was > 100 µM, the TGI [4] was > 100 µM and the GI50 [5] was > 100 µM. The TGI [5] was > 100 µM, the GI50 [6] was > 100 µM and the TGI [6] was > 100 µM. The GI50 [7] was > 100 µM, the TGI [7] was > 100 µM and the GI50 [8] was > 100 µM. The TGI [8] was > 100 µM, the GI50 [9] was > 100 µM and the TGI [9] was > 100 µM. The GI50 [10] was > 100 µM and the TGI [10] was > 100 µM.
For `COC(=O)C1CC23CCCN4CCC5(c6ccccc6N(C=O)C15CC2)C43` (stereo unspecified), the TGI [1] was > 100 µM, the TGI [2] was > 100 µM and the TGI [3] was > 100 µM. For the same molecule, the TGI [4] was > 100 µM, the TGI [5] was > 100 µM and the TGI [6] was > 100 µM. For the same molecule, the TGI [7] was > 100 µM, the TGI [8] was > 100 µM and the TGI [9] was > 100 µM. For the same molecule, the TGI [10] was > 100 µM.
With `O=C(Oc1cccc(F)c1OC(=O)c1cccc(O)c1)c1cccc(O)c1` the GI50 [1] was 11.6 µM, the TGI [1] was > 100 µM and the GI50 [2] was 11.2 µM. For the same molecule, the TGI [2] was > 100 µM, the GI50 [3] was 52.9 µM and the TGI [3] was > 100 µM. It also gave a GI50 [4] of 10.3 µM, a TGI [4] of 77.6 µM and a GI50 [5] of 36.1 µM. The TGI [5] was > 100 µM, the GI50 [6] was 84 µM and the TGI [6] was > 100 µM. For the same molecule, the GI50 [7] was 13.4 µM, the TGI [7] was 48.8 µM and the GI50 [8] was > 100 µM. The TGI [8] was > 100 µM, the GI50 [9] was > 100 µM and the TGI [9] was > 100 µM. For the same molecule, the GI50 [10] was 12.1 µM and the TGI [10] was 73.6 µM.
`C[C@]12CC[C@@H]3c4ccc(OC(=O)N(CCCl)CCCl)cc4CC[C@H]3[C@@H]1CC[C@@H]2O` was tested, and the GI50 [1] was 2.75 µM, the TGI [1] was 12.9 µM and the GI50 [2] was 3.48 µM. For the same molecule, the TGI [2] was 18.9 µM and 3.14 µM, the GI50 [3] was 3.02 µM and the TGI [3] was > 40.2 µM. It also gave a GI50 [4] of 1.92 µM, a TGI [4] of 8.81 µM and a GI50 [5] of 0.819 µM. The TGI [5] was 4.14 µM, the GI50 [6] was 4.71 µM and the TGI [6] was 36.8 µM and 7.95 µM. For the same molecule, the GI50 [7] was 2.53 µM, the TGI [7] was 15.2 µM and the GI50 [8] was 4.31 µM. For the same molecule, the TGI [8] was 14.8 µM, the GI50 [9] was 1.16 µM and the TGI [9] was 7.52 µM. The GI50 [10] was 2.23 µM and the TGI [10] was 6.42 µM.
With `C=C(C)C(O)CCC1(C)C=Cc2c(c(C)cc3c2[nH]c2ccccc23)O1` (stereo unspecified) the GI50 [1] was 2.33 µM, the TGI [1] was 10.6 µM and 5.86 µM and the GI50 [2] was 5.6 µM. For the same molecule, the TGI [2] was 25 µM and 19.3 µM, the TGI [3] was 19.3 µM and the TGI [4] was 22.6 µM. The TGI [5] was 14.8 µM, the GI50 [6] was 11 µM and the TGI [6] was 25 µM and 22.9 µM. The GI50 [7] was 3.29 µM, the TGI [7] was 11.3 µM and 9.34 µM and the GI50 [8] was 2.11 µM. The TGI [8] was 8.32 µM, the TGI [9] was 25 µM and 24.7 µM and the GI50 [10] was 2.78 µM. The TGI [10] was 25 µM and 8.51 µM.
With `O=C(CCCCCCNC(=O)c1cnc(N(c2ccccc2)c2ccccc2)nc1)NO` the GI50 [1] was 2.75 µM, the TGI [1] was > 100 µM and the GI50 [2] was 3.77 µM. For the same molecule, the TGI [2] was 33.2 µM, the GI50 [3] was 4.87 µM and the TGI [3] was > 100 µM. The GI50 [4] was 14.4 µM, the TGI [4] was > 96.8 µM and the GI50 [5] was 2.95 µM. It also gave a TGI [5] of 10.8 µM, a GI50 [6] of 3.25 µM and a TGI [6] of 23.8 µM. It also gave a GI50 [7] of 0.786 µM, a TGI [7] of 5.66 µM and a GI50 [8] of 1.9 µM. The TGI [8] was 8.36 µM, the GI50 [9] was 0.73 µM and the TGI [9] was 5.03 µM. The GI50 [10] was 0.796 µM and the TGI [10] was 3.85 µM.
`CC(=O)NC1C(OC[C@@H](CC(=O)N[C@@H](CC(=O)O)CC(=O)N[C@H](CC(=O)N[C@@H](CCCN)CC(=O)N[C@@H](CCCN)CC(=O)N[C@H](CC(N)=O)C(C)C)C(C)C)NC(=O)C[C@@H](N)C(C)C)OC(CO)C(O)C1O` (stereo partly specified) was tested, and the GI50 [1] was > 100 µM, the TGI [1] was > 100 µM and the GI50 [2] was > 100 µM. The TGI [2] was > 100 µM, the GI50 [3] was > 100 µM and the TGI [3] was > 100 µM. The GI50 [4] was > 100 µM, the TGI [4] was > 100 µM and the GI50 [5] was > 100 µM. For the same molecule, the TGI [5] was > 100 µM, the GI50 [6] was > 100 µM and the TGI [6] was > 100 µM. The GI50 [7] was > 100 µM, the TGI [7] was > 100 µM and the GI50 [8] was > 100 µM. For the same molecule, the TGI [8] was > 100 µM, the GI50 [9] was > 100 µM and the TGI [9] was > 100 µM. For the same molecule, the GI50 [10] was > 100 µM and the TGI [10] was > 100 µM.
For `C/C(=N\NC(=S)N1CC2CCC(CC2)C1)c1nccs1`, the TGI [1] was 3.67 µM, the TGI [2] was 9.41 µM and the TGI [3] was 16.6 µM. For the same molecule, the TGI [4] was 3.9 µM, the TGI [5] was 7.81 µM and the TGI [6] was 11.3 µM. The TGI [7] was 14 µM, the TGI [8] was 15.7 µM and the TGI [9] was 13.9 µM. The TGI [10] was 5.39 µM.
`CCCCCCCCNc1cc2c3c(c1)CCCN3CCC2` showed a GI50 [1] of 2.66 µM, a TGI [1] of 9.18 µM and a GI50 [2] of 2.04 µM. For the same molecule, the TGI [2] was 12.8 µM, the GI50 [3] was 0.926 µM and the TGI [3] was 12.8 µM. The GI50 [4] was 19.7 µM, the TGI [4] was > 100 µM and the GI50 [5] was 2.31 µM. It also gave a TGI [5] of 10.8 µM, a GI50 [6] of 2.36 µM and a TGI [6] of 7.96 µM. It also gave a GI50 [7] of 0.594 µM, a TGI [7] of 6.47 µM and a GI50 [8] of 3.06 µM. It also gave a TGI [8] of 12.7 µM, a GI50 [9] of 2.05 µM and a TGI [9] of 8.53 µM. For the same molecule, the GI50 [10] was 4.07 µM and the TGI [10] was 17.9 µM.
`COc1ncnc2c(-c3ccccc3)cn(COCc3ccccc3)c12` gave a GI50 [1] of 3.54 µM, a TGI [1] of 23 µM and a GI50 [2] of 4.25 µM. For the same molecule, the TGI [2] was > 100 µM, the GI50 [3] was 2.72 µM and the TGI [3] was > 100 µM. It also gave a GI50 [4] of 3.17 µM, a TGI [4] of 19.1 µM and a GI50 [5] of 2.82 µM. For the same molecule, the TGI [5] was 15.4 µM, the GI50 [6] was 7.69 µM and the TGI [6] was > 100 µM. The GI50 [7] was 2.09 µM, the TGI [7] was 6.17 µM and the GI50 [8] was 2.08 µM. The TGI [8] was 4.99 µM, the GI50 [9] was 2.52 µM and the TGI [9] was 7.69 µM. For the same molecule, the GI50 [10] was 2.5 µM and the TGI [10] was 7.71 µM.
With `O=C(O)CN(CC(=O)O)Cc1cc(C#Cc2ccc(C#Cc3ccccc3)cc2)cc(CN(CC(=O)O)CC(=O)O)n1` the TGI [1] was 66.2 µM, the TGI [2] was > 85.4 µM and the TGI [3] was 60.9 µM. For the same molecule, the TGI [4] was 35.6 µM, the TGI [5] was > 88.9 µM and the TGI [6] was > 100 µM. For the same molecule, the TGI [7] was 52 µM, the TGI [8] was > 73.7 µM and the TGI [9] was > 85.5 µM. The TGI [10] was > 62.7 µM.
